From patent US7488811B2, “Macrolide compounds endowed with antiinflammatory activity” (Zambon Group S.p.A., priority 2002, dated 2009)

Tests used:
[1] = tested on: PMA-induced oedema in mouse ear; experiment: Acute contact dermatitis: TPA (PMA)-induced ear oedema in mice; format: in vivo; settings: CD1 mice, 500 μg/ear topical in TPDS 30 min before TPA 0.01%, 6 h
Protocol: Groups of 5-6 CD1 mice (18-24 g) were used. • Administration of the compounds
All the macrolide compounds were dissolved in Trans-phase Delivery System (TPDS), a vehicle formed by 10% benzyl alcohol, 40% acetone and 50% isopropanol.
15 microlitres of the compounds (500 μg), dissolved in TPDS, were applied topically to the inner surface of an ear; 30 minutes later, 12 microlitres of a solution of tetradecanoylphorbol acetate (TPA) at a concentration of 0.01% dissolved in acetone were applied to the same area.
Six hours later, the animals were sacrificed by inhalation of CO2. • Evaluation of the results
Two methods were used to evaluate the auricular oedema: • a) Weight of a given portion of auricular pinna. • b) Measurement of the auricular thickness using precision spring callipers.
The degree of oedema was calculated by subtracting the weight or the thickness of the untreated ear from that of the contralateral treated ear. To determine the degree of remission of the oedema, the difference (weight or thickness) of the groups treated with TPA+macrolides was then compared with the groups treated with TPA alone.
The activity of the macrolide compounds was measured by using the modified method of Zunic et al. (1998): MDL (Lysyl) GDP, a non-toxic muramyl dipeptide derivative inhibits cytokine production by activated macrophages and protects mice from phorbol ester- and oxazolone-induced inflammation (J. Invest. Dermatol., 111(1), 77-82).
The data relating to erythromycin and azythromycin concern the treatment with a single dose of 500 μg/ear.

[2] = tested on: Streptococcus pneumoniae ATCC 49619; experiment: Antibiotic activity, MIC in liquid medium; format: cell-based; settings: ATCC49619, Strep. pneum ATTC 49619
Protocol: (§1) The MIC values were determined in liquid earth according to the method described in “Manual of Clinical Microbiology, 7th edition (1999), American Society for Microbiology”.

[3] = tested on: Staphylococcus aureus ATCC 29213; experiment: Antibiotic activity, MIC in liquid medium; format: cell-based; settings: ATCC29213, Staph. aureus ATCC 29213
Protocol: as §1

[4] = tested on: Enterococcus faecalis ATCC 29212; experiment: Antibiotic activity, MIC or activity at 128 μg/ml; format: cell-based; settings: Enter. faecalis ATCC 29212; for MIC: Enterococcus faecalis, ATCC29212
Protocol: as §1

[5] = tested on: Streptococcus pyogenes ATCC 19615; experiment: Antibiotic activity at 128 μg/ml; format: cell-based; settings: Strep. pyogenes ATTC 19615; 128 μg/ml
Protocol: as §1

[6] = tested on: Staphylococcus aureus ATCC 6538; experiment: Antibiotic activity at 128 μg/ml; format: cell-based; settings: Staph. aureus ATCC 6538; 128 μg/ml
Protocol: as §1

[7] = method a: weight of a given portion of auricular pinna
[8] = method b: auricular thickness by precision spring callipers

| Structure (SMILES) | inhibition in vivo at 500 µg/ear [1, 7] | MIC [2] | MIC [3] | MIC [4] | inhibition in vivo at 500 µg/ear [1, 8] | Antibiotic activity at 128 μg/ml [4] | Antibiotic activity at 128 μg/ml [5] | Antibiotic activity at 128 μg/ml [6] |
| --- | --- | --- | --- | --- | --- | --- | --- | --- |
| CC[C@H]1OC(=O)[C@H](C)[C@@H](O)[C@H](C)[C@@H](O[C@@H]2O[C@H](C)CC(N(C)C(=O)CNCCN(C)C)[C@H]2O)C(C)(O)C[C@@H](C)[C@H](O)[C@H](C)[C@@H](O)[C@]1(C)O (some centres unmarked) [Compound 6] | 30.9% |  |  |  |  |  |  |  |
| CC[C@H]1OC(=O)[C@H](C)[C@@H](O)[C@H](C)[C@H](O[C@@H]2O[C@H](C)CC([N+](C)(C)[O-])[C@@H]2O)[C@](C)(O)C[C@@H](C)/C(=N\OCCNCCNCc2nccs2)[C@H](C)[C@H](O)[C@]1(C)O (some centres unmarked) [Compound 20] |  | > 128 µg/mL | > 128 µg/mL | > 128 µg/mL | 49.9% |  |  |  |
| CC[C@H]1OC(=O)[C@H](C)[C@@H](O)[C@H](C)[C@@H](O[C@@H]2O[C@H](C)CC(N(C)CCCNCc3nccs3)[C@H]2O)C(C)(O)C[C@@H](C)[C@H](O)[C@H](C)[C@@H](O)[C@]1(C)O (some centres unmarked) [Compound 5] | 53.4% |  |  |  |  |  |  |  |
| CC[C@H]1OC(=O)[C@H](C)[C@@H](O)[C@H](C)[C@H](O[C@@H]2O[C@H](C)CC[C@@H]2O)[C@](C)(O)C[C@@H](C)/C(=N\OCCNCCNCc2nccs2)[C@H](C)[C@H](O)[C@]1(C)O [Compound 21] |  | > 128 µg/mL | > 128 µg/mL | > 128 µg/mL | 74.1% | not active | not active | not active |
| CC[C@H]1OC(=O)[C@H](C)[C@@H](O)[C@H](C)[C@@H](O[C@@H]2O[C@H](C)C=C[C@H]2O)C(C)(O)C[C@@H](C)/C(=N\OC)[C@H](C)[C@@H](O)[C@]1(C)O (some centres unmarked) [Compound 17] | 41.9% |  |  |  |  |  |  |  |
| CC[C@H]1OC(=O)[C@H](C)[C@@H](O[C@H]2C[C@@](C)(OC)[C@@H](O)[C@H](C)O2)[C@H](C)[C@@H](O[C@@H]2O[C@H](C)C[C@H](N(C)C)[C@H]2O)[C@](C)(O)C[C@@H](C)CN(C)[C@H](C)[C@@H](O)[C@]1(C)O [Azythromycin, reference compound] | 40% |  |  |  |  |  |  |  |
| CC[C@H]1OC(=O)[C@H](C)[C@@H](O)[C@H](C)[C@@H](O[C@@H]2O[C@H](C)C[C@H](N(C)C)[C@H]2O)C(C)(O)C[C@@H](C)/C(=N\OC)[C@H](C)[C@@H](O)[C@]1(C)O (some centres unmarked) [Compound 15] | 31.6% |  |  |  |  | not active | not active | not active |
| CC[C@H]1OC(=O)[C@H](C)[C@@H](O)[C@H](C)[C@@H](O[C@@H]2O[C@H](C)C[C@H]([N+](C)(C)[O-])[C@H]2O)C(C)(O)C[C@@H](C)/C(=N\OC)[C@H](C)[C@@H](O)[C@]1(C)O (some centres unmarked) [Compound 16] | 72.3% |  |  |  |  |  |  |  |
| CC[C@H]1OC(=O)[C@H](C)[C@@H](O)[C@H](C)[C@@H](O[C@@H]2O[C@H](C)C[C@H](N(C)C)[C@H]2O)C(C)(OC)C[C@@H](C)[C@H](O)[C@H](C)[C@@H](O)[C@]1(C)O (some centres unmarked) [Compound 27] |  | > 128 µg/mL | > 128 µg/mL | > 128 µg/mL |  |  |  |  |
| CC[C@H]1OC(=O)[C@H](C)[C@@H](O)[C@H](C)[C@@H](O[C@@H]2O[C@H](C)C[C@H](N(C)C)[C@H]2O)C(C)(O)C[C@@H](C)[C@H](O)[C@H](C)[C@@H](O)[C@]1(C)O (some centres unmarked) [Compound 2] | 36.2% | > 128 µg/mL | > 128 µg/mL | > 128 µg/mL |  | not active | not active | not active |
| CC[C@H]1OC(=O)[C@H](C)[C@@H](O)[C@H](C)[C@@H](O[C@@H]2O[C@H](C)C[C@H]([N+](C)(C)[O-])[C@H]2O)C(C)(O)C[C@@H](C)/C(=N\O)[C@H](C)[C@@H](O)[C@]1(C)O (some centres unmarked) [Compound 12] | 87.4% | > 128 µg/mL | > 128 µg/mL | > 128 µg/mL |  | not active | not active | not active |
| CC[C@H]1OC(=O)[C@H](C)[C@@H](O)[C@H](C)[C@@H](O[C@@H]2O[C@H](C)CC[C@H]2O)C(C)(O)C[C@@H](C)/C(=N\OCCNCCNCc2ccco2)[C@H](C)[C@@H](O)[C@]1(C)O (some centres unmarked) [Compound 26] |  |  |  |  |  | not active | not active | not active |
| CC[C@H]1OC(=O)[C@H](C)[C@@H](O)[C@H](C)[C@H](OC2O[C@H](C)C[C@H](N(C)CCCOCc3cccnc3)[C@@H]2O)C(C)(O)C[C@H](C)[C@H](O)[C@H](C)[C@@H](O)[C@]1(C)O (some centres unmarked) [Compound 30] | 39.8% |  |  |  |  |  |  |  |
| CC[C@H]1OC(=O)[C@H](C)[C@@H](O)[C@H](C)[C@@H](O[C@@H]2O[C@H](C)C[C@H](N(C)CCNCCNCc3nccs3)[C@H]2O)[C@@](C)(O)C[C@@H](C)[C@H](O)[C@H](C)[C@@H](O)[C@]1(C)O [Compound 7] | 45% |  |  |  |  |  |  |  |
| CC[C@H]1OC(=O)[C@H](C)[C@@H](O)[C@H](C)[C@@H](O[C@@H]2O[C@H](C)C[C@H](N(C)C)[C@H]2O)C(C)(O)C[C@@H](C)/C(=N\O)[C@H](C)[C@@H](O)[C@]1(C)O (some centres unmarked) [Compound 11] | 70.2% | > 128 µg/mL | > 128 µg/mL | > 128 µg/mL |  | not active | not active | not active |
| CC[C@H]1OC(=O)[C@H](C)[C@@H](O)[C@H](C)[C@@H](O[C@@H]2O[C@H](C)C=C[C@H]2O)C(C)(O)C[C@@H](C)/C(=N\O)[C@H](C)[C@@H](O)[C@]1(C)O (some centres unmarked) [Compound 13] | 77.4% | > 128 µg/mL | > 128 µg/mL | > 128 µg/mL |  | not active | not active | not active |
| CC[C@H]1OC(=O)[C@H](C)[C@@H](O)[C@H](C)[C@@H](O[C@@H]2O[C@H](C)C=C[C@H]2O)C(C)(O)C[C@@H](C)[C@H](O)[C@H](C)[C@@H](O)[C@]1(C)O (some centres unmarked) [Compound 9] | 32.4% |  |  |  |  |  |  |  |
| CC[C@H]1OC(=O)[C@H](C)[C@@H](O)[C@H](C)[C@@H](O[C@@H]2O[C@H](C)C[C@H]([N+](C)(C)[O-])[C@H]2O)C(C)(O)C[C@@H](C)[C@H](O)[C@H](C)[C@@H](O)[C@]1(C)O (some centres unmarked) [Compound 3] | 65.2% | > 128 µg/mL | > 128 µg/mL | > 128 µg/mL |  | not active | not active | not active |
| CC[C@H]1OC(=O)[C@H](C)[C@@H](O)[C@H](C)[C@H](OC2O[C@H](C)C[C@H](N(C)C(C)=O)[C@@H]2O)C(C)(OC)C[C@H](C)/C(=N\O)[C@H](C)[C@@H](O)[C@]1(C)O (some centres unmarked) [Compound 29] | 44.5% |  |  |  |  |  |  |  |
